This is an account of results in PMC3781062 (PLoS ONE, 2013).

Substitutions are numbered along the chain they refer to. Values joined by “and” are separate entries in the source; they are usually repeats but may differ in a detail not shown here. Identical values can stand only once.

Usually IC50 stands for the point on the concentration scale where inhibition reaches its midpoint. In general, Ki refers to the dissociation constant of the complex between target and ligand, obtained from inhibition or displacement. A low value points to tighter binding.

The target of data set [1] is T1, CYP1B1 (Homo sapiens, UniProt Q16678, L432V).
T1 construct: made in house; host or cells: E. coli JM109
T1 sequence (Q16678 1-543 L432V): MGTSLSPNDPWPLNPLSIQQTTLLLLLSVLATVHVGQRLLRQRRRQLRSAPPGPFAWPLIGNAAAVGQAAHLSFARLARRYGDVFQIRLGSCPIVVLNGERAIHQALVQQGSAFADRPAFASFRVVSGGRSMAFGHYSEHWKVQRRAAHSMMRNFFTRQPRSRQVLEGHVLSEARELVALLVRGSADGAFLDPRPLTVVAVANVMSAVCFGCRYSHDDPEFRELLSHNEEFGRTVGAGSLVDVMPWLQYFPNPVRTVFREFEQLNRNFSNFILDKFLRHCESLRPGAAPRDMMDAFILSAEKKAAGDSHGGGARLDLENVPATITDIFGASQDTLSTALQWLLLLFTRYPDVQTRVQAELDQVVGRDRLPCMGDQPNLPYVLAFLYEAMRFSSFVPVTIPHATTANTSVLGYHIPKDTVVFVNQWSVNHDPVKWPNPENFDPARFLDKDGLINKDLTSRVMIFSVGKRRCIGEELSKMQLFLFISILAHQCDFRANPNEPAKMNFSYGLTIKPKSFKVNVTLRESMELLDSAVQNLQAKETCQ
As to the kind of experiment: Inhibition of CYP1B1-dependent EROD activity, E. coli membranes co-expressing CYP1B1 and CPR. It is filed as biochemical. Here is the method:
(§1) EROD activity was determined as previously described, but modified in 96-well plate format with quadruplicate replicates, using a Fluoroskan fluorescence reader (Labsystems, Cambridge, UK). […] Calibration curves were constructed with authentic resorufin standards and linear regression analysis used to calculate the amount of resorufin formed in each test sample. Enzyme kinetics for CYP1B1-catalysed EROD activity were determined at substrate concentrations from 0.002 to 2 µM. Apparent Km and Vmax values were estimated by non-linear regression analysis (GraFit software program, UK) of the substrate concentration [S]-enzyme activity [V], fitting data to a Michaelis-Menten model.

The target in the next data set is T2, CYP1B1*4 (Homo sapiens, UniProt Q16678, L432V/N453S).
T2 construct: made in house; host or cells: E. coli JM109
T2 sequence (Q16678 1-543 L432V/N453S): T1 sequence (Q16678 1-543 L432V) with N453S
As to the kind of experiment: Inhibition of EROD activity of CYP1B1 allelic variant co-expressed with CPR. In kind it is biochemical. The settings on record: mean ± SD of triplicate determinations, read-out: IC50 against CYP1B1-dependent EROD activity (converted). Here is the method: (§2) Construction of CYP1B1 and CPR expression plasmids has been described previously. The CYP1B1 alleles CYP1B1*1, CYP1B1*3 and CYP1B1*4 were co-expressed with CPR in E. coli JM109 cells and membranes prepared as described previously. P450 content was determined spectrophotometrically, and CPR activity estimated by cytochrome c reduction. […] Solubilised protein lysates or human liver microsomes were separated by SDS-PAGE, transferred onto Hybond-ECL nitrocellulose membranes (Amersham, UK) and probed with CYP1B1 (BD Gentest, Woburn, MA) and CPR antibodies, as previously described.
as §1

A further data set deals with CYP1B1*3 (Homo sapiens, UniProt Q16678, form not given). Described as above. The settings on record: probe 7-ethoxyresorufin (EROD). In kind it is biochemical. Here is the method: as §2, §1
A further data set has as its target CYP1B1*1 (Homo sapiens, UniProt Q16678). The description is as above. It is filed as biochemical. To be noted: IC50 against CYP1B1-dependent EROD activity, mean ± SD of triplicate determinations. The procedure:
as §2, §1

A further data set relates to CHO cells. Briefly: PUVA cytotoxicity, neutral red uptake assay. The procedure:
(§3) CHO cell lines stably over-expressing CYP1B1 and CPR were generated as previously described. CHO cells were maintained at 37°C/5% CO2 in Dulbecco’s Modified Eagle’s medium (DMEM) supplemented with 10% fetal bovine serum (FBS), 100 U/ml penicillin, 100 µg/ml streptomycin, 1 U/ml each of hypoxanthine and thymine (Invitrogen, Paisley-UK). Similar culture conditions, with the addition of G-418 (400 µg/ml), were used for CHO cells stably expressing CPR (CHO-CPR). CHO cells stably co-expressing CYP1B1 and CPR (CHO-1B1/CPR) were maintained at 37°C/5% CO2, but in hypoxanthine and thymine-free DMEM supplemented with 10% dialysed FBS and the appropriate selection (0.3 µM MTX and 400 µg/ml G-418). HaCaT keratinocytes were grown to 80% confluence in DMEM supplemented with 10% fetal bovine serum (FBS), 100 U/ml penicillin, 100 µg/ml streptomycin and 2 mM glutamine. Cells were harvested and microsomes prepared as described previously. HaCaT cell microsomes and microsomes from human skin biopsies obtained from peri-lesional skin from psoriasis patients, [13] were used to investigate functional CYP1B1 expression using EROD assays.
(§4) To investigate CHO cell sensitivity to UVA and PUVA, actively dividing cells (10000 cells/well) were seeded in 96-well plates (Iwaki, Japan) in quadruplicates in 200 µl culture medium and allowed to grow for 18–20 h. Cells were irradiated at room temperature with a UVA source (2×6 ft Cosmolux 15500/100 W, 1.7 mW/cm^2 (320–400 nm; λmax = 365 nm), Germany) through a 4 mm thick window glass filter at multiple UVA doses (0, 1.5, 4.0 and 7.5 J/cm^2), monitoring irradiance with a Waldmann UV meter equipped with UVA detector. Control samples were kept in the dark under the same conditions. […] Control samples were pre-incubated with solvent and kept in the dark under the same conditions. After each treatment, fresh culture medium was added and cells returned to an incubator at 37°C/5%CO2 for 24 h. Cell viability was assessed using neutral red uptake assays; quadruplicate replicates of each treatment were performed, and each experiment repeated twice. PUVA cytotoxicity data was assessed by non-linear regression analysis for dose-response curves (IC50) fitting (GraFit software program, UK) and unpaired Student’s t-test (Statview 4.1 software).

The next data set concerns CHO-CPR cells. Briefly: PUVA cytotoxicity, neutral red uptake assay. The procedure:
as §3, §4

The target of another data set is T3, CYP1A1 (Homo sapiens, UniProt P04798).
T3 sequence (P04798 1-512): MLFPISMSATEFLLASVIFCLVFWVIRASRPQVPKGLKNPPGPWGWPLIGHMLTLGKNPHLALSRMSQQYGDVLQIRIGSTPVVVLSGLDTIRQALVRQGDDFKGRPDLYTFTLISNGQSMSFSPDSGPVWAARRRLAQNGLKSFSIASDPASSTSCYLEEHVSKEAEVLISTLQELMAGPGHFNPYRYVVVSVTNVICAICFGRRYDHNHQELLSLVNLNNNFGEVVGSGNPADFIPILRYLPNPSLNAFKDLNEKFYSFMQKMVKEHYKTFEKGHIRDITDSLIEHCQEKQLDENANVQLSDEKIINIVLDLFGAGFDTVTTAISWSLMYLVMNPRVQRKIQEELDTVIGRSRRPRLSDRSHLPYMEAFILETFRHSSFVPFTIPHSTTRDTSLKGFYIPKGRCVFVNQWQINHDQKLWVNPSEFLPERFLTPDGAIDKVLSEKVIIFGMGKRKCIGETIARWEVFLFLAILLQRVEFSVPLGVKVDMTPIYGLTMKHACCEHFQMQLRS
The settings on record: α-naphthoflavone 5 µM; recombinant CYP1A1.

The test system of data set [2] is CYP1B1. The settings on record: α-naphthoflavone 5 µM; recombinant CYP1B1.
Experimental: (§5) After 3 min 37°C pre-incubation, reactions were initiated by 40 µl 5 mM NADPH containing 30 mM glutathione (GSH) in 50 mM PB (pH 7.4). Reactions were incubated for 10 min in a shaking water bath at 37°C, terminated by the addition of 100 µl ice-cold methanol containing 3% perchloric acid, and placed on ice for 10 min. Zero-time controls were terminated before the addition of P450 membranes; no-NADPH control reactions were initiated with 20 µl 50 mM PB (pH 7.4) containing 30 mM GSH. Samples were vortexed for 1 min, centrifuged at 12 000 rpm for 5 min, supernatants collected and analysed by HPLC analysis [28].
The next data set deals with human liver microsomes. Briefly: 8-MOP metabolism (substrate depletion) in human liver microsomes. In kind it is in vitro ADME. To be noted: α-naphthoflavone 5 µM.

Experimental for CYP1A1: as §5
Experimental for human liver microsomes: as §5

Regarding `COc1c2occc2cc2ccc(=O)oc12` [8-MOP, 8-methoxypsoralen], the IC50 at CYP1B1 [1] (7-ethoxyresorufin at Km concentration, estimated) was 2000 ± 100 nM; on CYP1B1*4, 601 nM and 600 nM; on CYP1B1*1, 1710 nM and 1700 nM; in the data set on CHO cells (Cricetulus griseus, CHO, light or radiation study, read-out: IC50 for 8-MOP in the presence of UVA), 0.461 µg/mL and 2.13 µM; in the data set on CHO-CPR cells (Cricetulus griseus, light or radiation study, read-out: IC50 for 8-MOP in the presence of UVA), 0.54 µg/mL and 2.5 µM. On CYP1B1 [1] (Lineweaver-Burk plots, six 8-MOP and four 7-ethoxyresorufin concentrations), the “Mode of inhibition of CYP1B1” value is “mixed inhibition”. The same compound had an inhibitory constant (Ki) at CYP1B1 [1] (n = 3) of 3580 ± 1000 nM. The IC50 at 3 min on CYP1B1*3 was 0.326 µg/mL and 1.5 µM. Besides, the “Cytotoxicity of 8-MOP alone (no UVA)” value in the data set with CHO cells (CHO cells, 8-MOP 0–5 µM, dark) is “no significant cytotoxicity”; in the data set with CHO-CPR cells (CHO-CPR cells, 8-MOP alone), “not cytotoxic”.
For the compound `O=c1cc(-c2ccccc2)oc2c1ccc1ccccc12` [α-naphthoflavone], the figures for the “8-MOP metabolism in presence of inhibitor” value at CYP1A1, in the data set on CYP1B1 [2] and in the data set with human liver microsomes were 53 % of control levels, 62 % of control levels and 59 % of control levels, respectively.
